Tests used:
Type in all cases: cell-based
HeLa cells = test: Necrosis assay; conditions: Homo sapiens, HeLa, 0.5 h, read-out: HeLa necrosis EC50 range
Procedure, shortened: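 HeLa cells treated with compound at 10 μM to 400 μM (final) for 30 min at 37° C., viability then measured by PrestoBlue fluorescence (ex 535/em 630 nm). Normalized to 1% DMSO and 400 μM ingenol mebutate controls; AbsEC50 from four-parameter sigmoidal fit.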

[1] = system: PMN's (polymorphonuclear leukocytes); test: Neutrophil oxidative burst; conditions: Leukocyte, 40 min, read-out: Neutrophil oxidative burst Rel EC50 range, PMN from buffy coats, 40 min at RT, hydroethidine fluorescence; normalized to 5×10^−7 M PEP0005
Procedure, shortened: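 Human buffy-coat neutrophils (2.5×10^5/well) in HBSS with 0.1% BSA, 5 mM glucose treated with compound premixed with 10 μM hydroethidine for 40 min at RT; fluorescence read at 485/579 nm. Normalized to 5×10^−7 M PEP0005; Rel EC50 is midway between fitted top and bottom, Abs EC50 gives 50% of PEP0005 maximum.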

[2] = system: Primary human epidermal keratinocytes, HeKa; test: HeKa cytokine release (IL-8); conditions: Homo sapiens, HEKa, 6 h, read-out: HeKa cytokine release (IL-8) Rel EC50 range
Description: Primary human epidermal keratinocytes, HeKa, were seeded (10.000 cells/well) in 96-well plates the day before the assay. Test compounds were diluted in DMSO (dimethyl sulfoxide) and further diluted in assay medium and pipetted into wells of 96 well-plates containing HeKa cells. The plates were incubated for 6 h at 37° C. in humidified air with 5% CO2. Plates were centrifuged briefly to spin down cells at 4° C., the supernatant was removed and analysed by Meso Scale Discovery (MSD) 4-spot cytokine assay (Pro-inflammatory II Ultra Sensitive kit, MSD, MD, USA). The MSD assay employs a sandwich immunoassay format where capture antibodies are coated in a patterned array on the bottom of the wells of a 4-Spot-Multi-MSD plate. Standard samples were incubated in the MULTI-SPOT plates as well, and the cytokine (IL-8) binds to its corresponding capture antibody spot. The cytokine level was quantitated on a SECTOR™ Imager using a cytokine-specific Detection Antibody labelled with MSD SULFO-TAG™ reagent.
Test compound titration curves were fitted to a four-parameter sigmoidal curve after normalizing the effect of the test compound to the effect of the positive control (1.5×10^−7 M PEP0005). Rel EC50 denotes the concentration of test compound producing an effect that is midway between the fitted top and bottom.

SMILES	EC50 (HeLa cells)	EC50 [1]	EC50 [2]
CC1=C[C@]23C(=O)[C@@H](C=C(CO)[C@@H](O)[C@]2(O)[C@H]1OC(=O)c1cccn1C1CC1)[C@H]1[C@@H](C[C@H]3C)C1(C)C [Compound 585, Ingenol 3-(1-cyclopropylpyrrole-2-carboxylate)]	< 150 µM	< 0.02 µM	< 0.02 µM
CCn1cc(C)c(C(=O)O[C@H]2C(C)=C[C@]34C(=O)[C@@H](C=C(CO)[C@@H](O)[C@]23O)[C@H]2[C@@H](C[C@H]4C)C2(C)C)c1C [Compound 586, Ingenol 3-(1-ethyl-2,4-dimethyl-pyrrole-3-carboxylate)]	< 150 µM	< 0.02 µM	< 0.02 µM
CC1=C[C@]23C(=O)[C@@H](C=C(CO)[C@@H](O)[C@]2(O)[C@H]1OC(=O)c1c(C)coc1C)[C@H]1[C@@H](C[C@H]3C)C1(C)C [Compound 529, Ingenol 3-(2,4-dimethylfuran-3-carboxylate)]	< 150 µM	< 0.02 µM	< 0.02 µM
CC1=C[C@]23C(=O)[C@@H](C=C(CO)[C@@H](O)[C@]2(O)[C@H]1OC(=O)c1c(C)oc(C)c1C)[C@H]1[C@@H](C[C@H]3C)C1(C)C [Compound 536, Ingenol 3-(2,4,5-trimethylfuran-3-carboxylate)]	150 to 350 µM	< 0.02 µM	< 0.02 µM
CC1=C[C@]23C(=O)[C@@H](C=C(CO)[C@@H](O)[C@]2(O)[C@H]1OC(=O)c1c(C)cc(C)n1C)[C@H]1[C@@H](C[C@H]3C)C1(C)C [Compound 542, Ingenol 3-(1,3,5-trimethylpyrrole-2-carboxylate)]	< 150 µM	< 0.02 µM	< 0.02 µM
CC1=C[C@]23C(=O)[C@@H](C=C(CO)[C@@H](O)[C@]2(O)[C@H]1OC(=O)c1nn(C)cc1Cl)[C@H]1[C@@H](C[C@H]3C)C1(C)C [Compound 526, Ingenol 3-(4-chloro-1-methyl-pyrazole-3-carboxylate)]	> 350 µM	0.02 to 0.1 µM	> 0.1 µM
CC1=C[C@]23C(=O)[C@@H](C=C(CO)[C@@H](O)[C@]2(O)[C@H]1OC(=O)c1cccc2cc[nH]c12)[C@H]1[C@@H](C[C@H]3C)C1(C)C [Compound 531, Ingenol 3-(1H-indole-7-carboxylate)]	< 150 µM	0.02 to 0.1 µM	< 0.02 µM
CC1=C[C@]23C(=O)[C@@H](C=C(CO)[C@@H](O)[C@]2(O)[C@H]1OC(=O)c1c(C)nn(C(C)C)c1C)[C@H]1[C@@H](C[C@H]3C)C1(C)C [Compound 546, Ingenol 3-(1-isopropyl-3,5-dimethyl-pyrazole-4-carboxylate)]	150 to 350 µM	< 0.02 µM	< 0.02 µM
CC1=C[C@]23C(=O)[C@@H](C=C(CO)[C@@H](O)[C@]2(O)[C@H]1OC(=O)N(C)CC1CCOCC1)[C@H]1[C@@H](C[C@H]3C)C1(C)C [Compound 746, Ingenol 3-(N-methyl-N-(tetrahydropyran-4-ylmethyl)-carbamate)]	> 350 µM	0.02 to 0.1 µM	> 0.1 µM
CC1=C[C@]23C(=O)[C@@H](C=C(CO)[C@@H](O)[C@]2(O)[C@H]1OC(=O)c1c(C)noc1C(F)(F)F)[C@H]1[C@@H](C[C@H]3C)C1(C)C [Compound 575, Ingenol 3-(3-methyl-5-(trifluoromethyl)isoxazole-4-carboxylate)]	< 150 µM	< 0.02 µM	< 0.02 µM
CCN(CC)C(=O)O[C@H]1C(C)=C[C@]23C(=O)[C@@H](C=C(CO)[C@@H](O)[C@]12O)[C@H]1[C@@H](C[C@H]3C)C1(C)C [Compound 706, Ingenol 3-(N,N-diethyl-carbamate)]	> 350 µM	< 0.02 µM	0.02 to 0.1 µM

From US9708286B2, “Ingenol-3-acylates III and ingenol-3-carbamates” (LEO Laboratories Limited, priority 2010, dated 2017)
